Values of other authors, collected in patent US10421941B2, “Process for improving the solubility of cell culture media” (Merck Patent GmbH, priority 2014, dated 2019).

Details: water / aqueous solvents

SMILES	solubility (in words)
CC(C)[C@H](N)C(=O)O [valine]	moderate
CC(C)C[C@H](N)C(=O)O [leucine]	moderate
CC[C@H](C)[C@H](N)C(=O)O [isoleucine]	moderate
N[C@@H](CSSC[C@H](N)C(=O)O)C(=O)O [cystine]	poorly soluble
